According to patent US11872262B2, “Means and methods for treating bacterial infections” (VIB VZW, priority 2017, dated 2024):
In brackets after ≈: the same amount, converted by molar mass. Residues, ends and D or L forms follow the SMILES beside them.

What was measured:
[1] = system: E. coli O157:H7; assay type: cell-based, Escherichia coli; details: screening-stage peptides tested at 1, 6, 12 and 25 μg/mL
How it was run: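 Tandem-repeat aggregation-prone-region peptides from DMSO stocks were tested for growth inhibition of E. coli O157:H7 at 1, 6, 12 and 25 μg/mL.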

[2] = system: Proteus mirabilis; assay type: cell-based
Method: (§1) Gram negative bacterial strains were cultivated in Luria-Bertani (LB) broth (Difco) and gram positive bacteria strains were grown in a rich medium, brain heart infusion (BHI) broth (Difco, Sparks, MD) at 37° C. Whenever required, growth media were supplemented with appropriate antibiotic to the medium or plates. Escherichia coli DH5α was used for cloning and plasmid amplification. […] Bacterial CFU counting was done on blood agar plates (BD Biosciences). Species identification and antibiograms for all clinical isolates were performed using MALDI-TOF and VITEK® 2 automated system (bioMérieux).
(§2) The MICs of active peptides were determined via the Broth microdilution assay according to the EUCAST guideline, which were performed in 96-well polystyrene flat-bottom microtiter plates (BD Biosciences). Briefly, a single colony was inoculated into 5 mL LB medium and grown to the end-exponential growth phase in a shaking incubator at 37° C. Cultures were subsequently diluted to an OD600 of 0.002 ([…]) in fresh LB medium. 100 μL of LB medium with different concentration of peptides ranging from 100 μg/mL to 1 μg/mL were serially diluted to the sterile 96-well plate (at least 3 wells in each plate). Afterward, 100 μL of the diluted bacteria were pipetted into 96-well plates containing different concentration of peptides. In each plate, the grown bacteria with maximum concentration of carrier and medium were considered as positive and negative controls, respectively. Thereafter, 96-well plates was statically incubated overnight at 37° C. to allow bacterial growth. A multipurpose UV/VIS plate reader at OD590 nm, 1 s shaking measured the absorbance of the growth bacteria using a Perkin Elmer spectrophotometer (1420 Multilabel Counter Victor 3).

[3] = system: Staphylococcus epidermidis 12228; assay type: cell-based
Method: as §1, §2

**Q.** With `CC(C)C[C@H](NC(=O)CNC(=O)[C@H](CCCNC(=N)N)NC(=O)[C@@H]1CCCN1C(=O)[C@H](CCCNC(=N)N)NC(=O)[C@H](CCCNC(=N)N)NC(=O)[C@@H](NC(=O)[C@H](CC(C)C)NC(=O)[C@H](C)NC(=O)[C@H](CC(C)C)NC(=O)CNC(=O)[C@H](CC(C)C)NC(=O)CNC(=O)[C@@H](N)CCCNC(=N)N)C(C)C)C(=O)NCC(=O)N[C@@H](CC(C)C)C(=O)N[C@@H](C)C(=O)N[C@@H](CC(C)C)C(=O)N[C@H](C(=O)N[C@@H](CCCNC(=N)N)C(=O)N[C@@H](CCCNC(=N)N)C(=O)O)C(C)C` [Peptide P2] (H-RGLGLALVRRPRGLGLALVRR-OH) as the compound, how does the “E. coli O157 (apparent MIC in screen)” value [1] read?
**A.** The value was 6 µg/mL.

**Q.** What about the MIC [2] of the same compound?
**A.** The MIC was 50 µg/mL (≈ 21.7 µM).

**Q.** What about the MIC [3] of the same compound?
**A.** The MIC was 50 µg/mL (≈ 21.7 µM).
